Reference: US9066516B2, “Uses of thaxtomin and thaxtomin compositions as herbicides” (priority 2008, dated 2015)

What was measured:
Type in all cases: in vivo
[1] = system: corn plants (Zea mays var. Sunglow); assay: Pot study, phytotoxicity on corn (Example 1); settings: spray 0.125-1.0 mg thaxtomin A/mL, three weeks after treatment
Protocol: In a pot study test in greenhouse conditions, 6-inch corn plants (Zea mays var. Sunglow) were sprayed with increasing concentrations of thaxtomin A mixed in a carrier 4% ethanol, 0.02% polysorbate 60 POE (20) sorbitan monostearate solution. The spraying solutions contained 0.125, 0.25, 0.5 and 1.0 mg thaxtomin A/mL, and the plants are sprayed until total coverage. Each treatment was done in three replicates, and a control solution consists of water with 4% ethanol and 0.02% polysorbate 60 POE (20) sorbitan monostearate as a surfactant. Prior to and after treatments, plants are grown in a greenhouse under artificial lights (12-h light/dark cycle) at 25° C.
Plants are evaluated in one-week intervals starting at 7 days after treatment.

dandelion = assay: Greenhouse synergy test MBI-005 + turf herbicides (Example 11); settings: 14 days
Protocol: (§1) The common turf weeds dandelion and plantain were used in testing for synergy between MBI-005 and 2, 4- or dicamba, two common turf herbicides.
(§2) There were 3 replicates per treatment which were sprayed with approximately ⅔ ml per replicate. The treatments were completely randomized and kept in a greenhouse at 25° C. The efficacy was rated at 7 and 14 days post treatment.

plantain = assay: as above; settings: 14 days
Protocol: as §1, §2

Bluegrass (Poa annua) = assay: Pre-emergence test of MBI-005, lab & field (Example 12); settings: pre-emergent; further: ranges in brackets are in %
Protocol: (§3) To further describe the spectrum of pre-emergence activity, tests were conducted in laboratory and field conditions. In laboratory testing, 35 seeds were placed on a ring of blotter paper inside a 3 cm petri dish and supplied with 4 ml of MBI-005 (≦0.1 mg MBI-005/ml). Water was used as a negative control and oryzalin applied as a positive control. Petri dishes were randomly placed in a growth room at 25° C. and 50% RH. Treatments were replicated three times and germinated seeds were counted 7 and 14 days after application; water was added as necessary to maintain moisture levels inside each petri dish.
(§4) In field testing, field soil containing weed seeds were treated with 38.2 L MBI-005/ha at a spray volume of 280 L/ha using a CO2 sprayer with flat fan nozzles. Treatments, including water as the negative control and Gallery as the positive control, were replicated four times and applied twice at a four week interval. Treatments were evaluated visually as % cover and above-ground fresh weights per container were taken.

[2] = system: Crabgrass (Digitaria sanguinalis); assay: as above; settings: pre-emergent; further: ranges in brackets are in %
Protocol: as §3, §4

[3] = system: Barnyardgrass (Echinochloa crus-gali); assay: Pre-emergence test of MBI-005, lab (Example 12); settings: pre-emergent; further: ranges in brackets are in %
Protocol: as §3

[4] = system: Bearded Sprangletop (Leptochloa fascicularis); assay: Pre-emergence test of MBI-005, lab (Example 12); settings: pre-emergent; further: ranges in brackets are in %
Protocol: as §3

[5] = system: Black nightshade (Solanum nigrum); assay: Pre-emergence test of MBI-005, lab (Example 12); settings: pre-emergent; further: ranges in brackets are in %
Protocol: as §3

[6] = system: Bristlegrass/Foxtail (Setaria viridis); assay: Pre-emergence test of MBI-005, lab (Example 12); settings: pre-emergent; further: ranges in brackets are in %
Protocol: as §3

[7] = system: Buckhorn plantain (Plantago lanceolata); assay: Pre-emergence test of MBI-005, lab (Example 12); settings: pre-emergent; further: ranges in brackets are in %
Protocol: as §3

[8] = system: Clover (Trifolium repens); assay: Pre-emergence test of MBI-005, lab (Example 12); settings: pre-emergent; further: ranges in brackets are in %
Protocol: as §3

[9] = system: Horseweed (R) (Conyza canadensis); assay: Pre-emergence test of MBI-005, lab (Example 12); settings: pre-emergent, herbicide resistant population; further: ranges in brackets are in %
Protocol: as §3

[10] = system: Lambsquarters (Chenopodium album); assay: Pre-emergence test of MBI-005, lab (Example 12); settings: pre-emergent; further: ranges in brackets are in %
Protocol: as §3

[11] = system: Late watergrass (R) (Echinochloa phyllopogon); assay: Pre-emergence test of MBI-005, lab (Example 12); settings: pre-emergent, herbicide resistant population; further: ranges in brackets are in %
Protocol: as §3

[12] = system: Mustard (Brassica juncea); assay: Pre-emergence test of MBI-005, lab (Example 12); settings: pre-emergent
Protocol: as §3

[13] = system: Palmer pigweed (R) (Amaranthus palmerii); assay: Pre-emergence test of MBI-005, lab (Example 12); settings: pre-emergent, herbicide resistant population; further: ranges in brackets are in %
Protocol: as §3

[14] = system: Ragweed (Ambrosia artemisifolia); assay: Pre-emergence test of MBI-005, lab (Example 12); settings: pre-emergent; further: ranges in brackets are in %
Protocol: as §3

[15] = system: Ryegrass (Lolium perenne); assay: Pre-emergence test of MBI-005, lab (Example 12); settings: pre-emergent; further: ranges in brackets are in %
Protocol: as §3

[16] = system: Bittercress (Cardamine hirsuta); assay: Pre-emergence test of MBI-005, field (Example 12); settings: pre-emergent; further: ranges in brackets are in %
Protocol: as §4

[17] = system: Chickweed (Stellaria media); assay: Pre-emergence test of MBI-005, field (Example 12); settings: pre-emergent; further: ranges in brackets are in %
Protocol: as §4

[18] = system: Common groundsel (Senecio vulgaris); assay: Pre-emergence test of MBI-005, field (Example 12); settings: pre-emergent; further: ranges in brackets are in %
Protocol: as §4

[19] = system: Common yellow oxalis (Oxalis stricta); assay: Pre-emergence test of MBI-005, field (Example 12); settings: pre-emergent; further: ranges in brackets are in %
Protocol: as §4

[20] = system: Dandelion (Taraxacum oficinale); assay: Pre-emergence test of MBI-005, field (Example 12); settings: pre-emergent; further: ranges in brackets are in %
Protocol: as §4

Eclipta (Eclipta alba) = assay: Pre-emergence test of MBI-005, field (Example 12); settings: pre-emergent; further: ranges in brackets are in %
Protocol: as §4

[21] = system: Flexuous bittercress (Cardamine flexuosa); assay: Pre-emergence test of MBI-005, field (Example 12); settings: pre-emergent; further: ranges in brackets are in %
Protocol: as §4

[22] = system: Hairy galinsoga (Galinsoga ciliata); assay: Pre-emergence test of MBI-005, field (Example 12); settings: pre-emergent; further: ranges in brackets are in %
Protocol: as §4

[23] = system: Henbit (Lamimum amplexicaule); assay: Pre-emergence test of MBI-005, field (Example 12); settings: pre-emergent; further: ranges in brackets are in %
Protocol: as §4

[24] = system: Marsh watercress (Rorippa islandica); assay: Pre-emergence test of MBI-005, field (Example 12); settings: pre-emergent; further: ranges in brackets are in %
Protocol: as §4

[25] = system: New Zealand moss (Sagina procumbens); assay: Pre-emergence test of MBI-005, field (Example 12); settings: pre-emergent; further: ranges in brackets are in %
Protocol: as §4

[26] = system: Shepherd's purse (Capsella bursa-pastora); assay: Pre-emergence test of MBI-005, field (Example 12); settings: pre-emergent; further: ranges in brackets are in %
Protocol: as §4

[27] = system: Velvetleaf (Abutilon theophrasti); assay: Pre-emergence test of MBI-005, field (Example 12); settings: pre-emergent; further: ranges in brackets are in %
Protocol: as §4

crabgrass = assay: Crabgrass seed germination, MBI-005 + m-Tyrosine (Example 15); settings: MBI-005 at 0.0035 mg/mL, 7 DAT
Protocol: Forty-five seeds were placed on a ring of blotter paper inside a 3 cm petri dish, covered with 10 cm^3 of inert baked clay particle media and supplied with 7 ml of 0.035 mg/ml MBI-005, a m-Tyrosine concentration, or a combination of MBI-005 and m-Tyrosine (Table 14). Water was used as a negative control. Petri dishes were randomly placed in a growth room at 25° C. and 50% RH. Treatments were replicated three times and germinated seeds were counted 7 days after application; water was added as necessary to maintain moisture levels inside each petri dish.
Synergy was calculated as the ratio of observed (E) to expected (E/Ee) reduction in germination using Colby's formula.

CN1C(=O)[C@](O)(Cc2cccc(O)c2)N(C)C(=O)[C@@H]1Cc1c[nH]c2cccc([N+](=O)[O-])c12 [thaxtomin A]
phytotoxicity [1]: no phytotoxicity is observed | % Control MBI-005 (dandelion; MBI-005 0.1 mg/mL (2, 4-D line)): 20.0% | % Control MBI-005 (dandelion; MBI-005 0.1 mg/mL (dicamba line)): 20.0% | % Control MBI-005 (plantain; MBI-005 0.12 mg/mL (dicamba line)): 10.0% | % Control MBI-005 (plantain; MBI-005 0.24 mg/mL (2, 4-D line)): 25.0% | Rating at 0.1 mg/ml (Reduction of Germination) (Bluegrass (Poa annua)): ++++ (95-100) | Rating at 0.1 mg/ml (Reduction of Germination) [2]: ++++ (95-100) | Rating at 0.1 mg/ml (Reduction of Germination) [3]: ++++ (95-100) | Rating at 0.1 mg/ml (Reduction of Germination) [4]: ++++ (95-100) | Rating at 0.1 mg/ml (Reduction of Germination) [5]: ++++ (95-100) | Rating at 0.1 mg/ml (Reduction of Germination) [6]: ++++ (95-100) | Rating at 0.1 mg/ml (Reduction of Germination) [7]: ++++ (95-100) | Rating at 0.1 mg/ml (Reduction of Germination) [8]: ++++ (95-100) | Rating at 0.1 mg/ml (Reduction of Germination) [9]: ++++ (95-100) | Rating at 0.1 mg/ml (Reduction of Germination) [10]: +++ (85-94) | Rating at 0.1 mg/ml (Reduction of Germination) [11]: ++++ (95-100) | Rating at 0.1 mg/ml (Reduction of Germination) [12]: ++++ (95-100) | Rating at 0.1 mg/ml (Reduction of Germination) [13]: +++ (85-94) | Rating at 0.1 mg/ml (Reduction of Germination) [14]: ++++ (95-100) | Rating at 0.1 mg/ml (Reduction of Germination) [15]: ++++ (95-100) | Rating at 0.1 mg/ml (Reduction of Germination) [16]: +++ (85-94) | Rating at 0.1 mg/ml (Reduction of Germination) [17]: ++++ (95-100) | Rating at 0.1 mg/ml (Reduction of Germination) [18]: ++++ (95-100) | Rating at 0.1 mg/ml (Reduction of Germination) [19]: ++++ (95-100) | Rating at 0.1 mg/ml (Reduction of Germination) [20]: ++++ (95-100) | Rating at 0.1 mg/ml (Reduction of Germination) (Eclipta (Eclipta alba)): ++ (60-84) | Rating at 0.1 mg/ml (Reduction of Germination) [21]: ++ (60-84) | Rating at 0.1 mg/ml (Reduction of Germination) [22]: +++ (85-94) | Rating at 0.1 mg/ml (Reduction of Germination) [23]: +++ (85-94) | Rating at 0.1 mg/ml (Reduction of Germination) [24]: ++++ (95-100) | Rating at 0.1 mg/ml (Reduction of Germination) [25]: ++++ (95-100) | Rating at 0.1 mg/ml (Reduction of Germination) [26]: ++++ (95-100) | Rating at 0.1 mg/ml (Reduction of Germination) [27]: ++ (60-84) | E (% controlled compared to UTC) (crabgrass): 14.3% | AVG No. germinated (crabgrass; forty-five seeds): 38.0
